One test has as its target T1, human EAAT2 (Homo sapiens, UniProt P43004).
T1 construct: expressed in transfected cells
Put plainly: inhibition of [14C]glutamate uptake by human EAAT2 expressed on MDCK or COS-1 cells. The test is classed as cell-based. The following applies: 1 μM L-[14C]glutamate, 12 minutes. The source says:
(§1) Well-known methods can be used to determine inhibitory activity of the compounds of the invention on glutamate transporters. For example, the compounds of the invention have been confirmed to inhibit uptake of ^14C-labeled glutamate into cells by human EAAT2 and EAAT3 stably expressed on MDCK (Madin-Darby Canine Kidney) cells or transiently expressed on COS-1 cells.
(§2) A known method (Shimamoto, K. et al., Mol. Pharmacol. 53, 195-201, 1998; Bioorg. Med. Chem. Lett. 10, 2407-2410, 2000) was used to measure the inhibitory effect on uptake of [^14C]glutamate by human EAAT2 and EAAT3 stably expressed on MDCK (Madin-Darby Canine Kidney) cells or transiently expressed on COS-1 cells. The glutamate uptake activity was measured by adding 1 μM of L-[^14C]glutamate and a prescribed concentration of sample, incubating for 12 minutes and then lysating the cells, and using a liquid scintillator to determine the radioactivity uptake. The uptake was expressed as a percentage, with 100% being the uptake with no compound (buffer alone) and 0% being the uptake with a sodium-free solution.

In a further test the target is T2, human EAAT3 (Homo sapiens, UniProt P43005).
T2 construct: expressed in transfected cells
T2 sequence (P43005 1-524): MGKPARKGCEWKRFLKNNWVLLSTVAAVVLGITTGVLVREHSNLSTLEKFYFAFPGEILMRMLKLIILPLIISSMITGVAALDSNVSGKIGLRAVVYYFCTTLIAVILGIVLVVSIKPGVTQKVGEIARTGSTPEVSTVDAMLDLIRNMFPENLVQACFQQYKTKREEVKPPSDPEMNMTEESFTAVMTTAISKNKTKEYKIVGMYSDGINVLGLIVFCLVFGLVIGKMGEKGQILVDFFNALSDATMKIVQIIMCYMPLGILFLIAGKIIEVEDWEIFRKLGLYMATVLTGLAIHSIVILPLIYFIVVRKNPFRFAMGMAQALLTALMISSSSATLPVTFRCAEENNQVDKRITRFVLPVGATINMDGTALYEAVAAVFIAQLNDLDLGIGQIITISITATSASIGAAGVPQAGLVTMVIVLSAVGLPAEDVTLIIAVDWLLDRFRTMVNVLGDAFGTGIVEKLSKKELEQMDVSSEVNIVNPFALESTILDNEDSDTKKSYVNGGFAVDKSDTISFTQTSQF
Nature of the test: inhibition of [14C]glutamate uptake by human EAAT3 expressed on MDCK or COS-1 cells. The test is classed as cell-based. The following applies: 1 μM L-[14C]glutamate, 12 minutes.
Excerpt: as §1, §2

The mark [1] stands for this setting: COS-1 cells (transiently expressed), marked *.

T1 sequence (P43004 whole entry): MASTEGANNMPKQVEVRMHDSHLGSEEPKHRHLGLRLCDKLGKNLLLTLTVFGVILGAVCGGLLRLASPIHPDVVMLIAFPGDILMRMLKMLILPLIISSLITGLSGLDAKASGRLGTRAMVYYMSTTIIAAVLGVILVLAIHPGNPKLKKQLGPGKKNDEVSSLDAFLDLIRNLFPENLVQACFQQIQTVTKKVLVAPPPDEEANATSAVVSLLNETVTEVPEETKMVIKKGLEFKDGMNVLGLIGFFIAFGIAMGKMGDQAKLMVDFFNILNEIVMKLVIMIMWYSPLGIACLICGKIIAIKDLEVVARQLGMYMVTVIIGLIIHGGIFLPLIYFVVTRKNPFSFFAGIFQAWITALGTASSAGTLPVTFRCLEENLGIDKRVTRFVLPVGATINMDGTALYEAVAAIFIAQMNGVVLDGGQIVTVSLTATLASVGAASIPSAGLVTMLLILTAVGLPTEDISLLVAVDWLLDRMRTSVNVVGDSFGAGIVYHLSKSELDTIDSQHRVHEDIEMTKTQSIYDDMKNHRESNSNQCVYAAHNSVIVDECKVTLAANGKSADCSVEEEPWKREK

One may read the IC50 as the concentration at which inhibition is half-maximal. In the case of `COc1ccc(C(=O)Nc2cccc(CO[C@H](C(=O)O)[C@H](N)C(=O)O)c2)cc1OC` [DiMeO-BzA-TBOA, (2S,3S)-3-[3-[N-(3,4-dimethoxybenzoyl)amino]benzyloxy]aspartic acid], the half-maximal inhibitory concentration (IC50) on human EAAT2 (stably expressed on MDCK cells) was found to be 49 ± 3.8 nM; on human EAAT3 (stably expressed on MDCK cells) it was 917 ± 30 nM.

For the compound `Nc1cccc(CO[C@H](C(=O)O)[C@H](N)C(=O)O)c1` [A-TBOA, (2S,3S)-3-(3-aminobenzyloxy)aspartic acid], the figures for the half-maximal inhibitory concentration (IC50) at human EAAT2 (stably expressed on MDCK cells) and on human EAAT3 (stably expressed on MDCK cells) were 2100 ± 100 nM and 7900 ± 760 nM, respectively.

As to `CC(C)(C)C(=O)Nc1cccc(CO[C@H](C(=O)O)[C@H](N)C(=O)O)c1` [Piv-A-TBOA, (2S,3S)-3-[3-(N-pivaroylamino)benzyloxy]aspartic acid], the concentration for half-maximal inhibition (IC50) against human EAAT2 (stably expressed on MDCK cells) is 1000 ± 130 nM; against human EAAT3 (stably expressed on MDCK cells), 4100 ± 670 nM.

Take `N[C@H](C(=O)O)[C@H](OCc1cccc(NC(=O)c2ccc(-c3ccccc3)cc2)c1)C(=O)O` [Ph-BzA-TBOA, (2S,3S)-3-[3-[N-(4-phenylbenzoyl)amino]benzyloxy]aspartic acid]: the IC50 against human EAAT2 (stably expressed on MDCK cells) amounted to 21 ± 2.2 nM; against human EAAT3 (stably expressed on MDCK cells), 34 ± 19 nM.

For the compound `CCC(=O)NCCC(=O)Nc1cccc(COC(C(=O)O)C(N)C(=O)O)c1` [Pr-AA-TBOA, (2S,3S)-3-[3-(3-N-propionylaminopropionylamino)benzyloxy]aspartic acid], the values for the IC50 at human EAAT2 (stably expressed on MDCK cells) and against human EAAT3 (stably expressed on MDCK cells) were 6000 ± 1400 nM and 7600 ± 450 nM, respectively.

Regarding `CCC(=O)Nc1cccc(CO[C@H](C(=O)O)[C@H](N)C(=O)O)c1` [Pr-A-TBOA, (2S,3S)-3-[3-(N-propionylamino)benzyloxy]aspartic acid], the IC50 came out at 2000 ± 210 nM against human EAAT2 (stably expressed on MDCK cells) and 7900 ± 460 nM at human EAAT3 (stably expressed on MDCK cells).

Take `N[C@H](C(=O)O)[C@H](OCc1cccc(NC(=O)CCCC[C@@H]2SC[C@@H]3NC(=O)N[C@@H]32)c1)C(=O)O` [BioA-TBOA, (2S,3S)-3-[3-(N-biotinylamino)benzyloxy]aspartic acid]: the IC50 turned out to be 38000 ± 13000 nM on human EAAT2 (stably expressed on MDCK cells) and 25000 ± 2400 nM on human EAAT3 (stably expressed on MDCK cells).

For `COc1cccc(C(=O)Nc2cccc(CO[C@H](C(=O)O)[C@H](N)C(=O)O)c2)c1` [m-MeO-BzA-TBOA, (2S,3S)-3-[3-[N-(3-methoxybenzoyl)amino]benzyloxy]aspartic acid], the figures for the IC50 against human EAAT2 (stably expressed on MDCK cells) and on human EAAT3 (stably expressed on MDCK cells) were 37 ± 2.5 nM and 356 ± 12 nM, respectively.

Turning to `N[C@H](C(=O)O)[C@H](OCc1cccc(NC(=O)c2ccc(C(F)(F)F)cc2)c1)C(=O)O` [CF3-BzA-TBOA, (2S,3S)-3-[3-[N-(4-trifluoromethylbenzoyl)amino]benzyloxy]aspartic acid], the results for the IC50 at human EAAT2 (stably expressed on MDCK cells) and at human EAAT3 (stably expressed on MDCK cells) were 1.9 ± 0.1 nM and 28 ± 1.8 nM, respectively.

In the case of `N[C@H](C(=O)O)[C@H](OCc1cccc(NC(=O)c2ccc(OCCCCCNC(=O)CCCC[C@@H]3SC[C@@H]4NC(=O)N[C@@H]43)cc2)c1)C(=O)O` [BioA-PenO-BzA-TBOA, (2S,3S)-3-[3-(N-(4-(5-biotynylaminopentyloxy)benzoyl)amino)benzyloxy]aspartic acid], the IC50 was found to be 2200 ± 520 nM at human EAAT2 (stably expressed on MDCK cells) and 1100 ± 60 nM at human EAAT3 (stably expressed on MDCK cells).

Turning to `N[C@H](C(=O)O)[C@H](OCc1cccc(NC(=O)CCNC(=O)CCCC[C@@H]2SC[C@@H]3NC(=O)N[C@@H]32)c1)C(=O)O` [Bio-AA-TBOA, (2S,3S)-3-[3-(3-N-biotinylaminopropionylamino)benzyloxy]aspartic acid], the IC50 turned out to be 6300 ± 390 nM at human EAAT2 (stably expressed on MDCK cells) and 10000 ± 930 nM against human EAAT3 (stably expressed on MDCK cells).

As to `N[C@H](C(=O)O)[C@H](OCc1cccc(NC(=O)Cc2ccccc2)c1)C(=O)O` [PhAcA-TBOA, (2S,3S)-3-[3-(N-phenylacetylamino)benzyloxy]aspartic acid], the results for the IC50 against human EAAT2 (stably expressed on MDCK cells) and against human EAAT3 (stably expressed on MDCK cells) were 143 ± 7.9 nM and 529 ± 32 nM, respectively.

Turning to `N[C@H](C(=O)O)[C@H](OCc1cccc(NC(=O)c2ccc(F)cc2)c1)C(=O)O` [F-BzA-TBOA, (2S,3S)-3-[3-[N-(4-fluorobenzoyl)amino]benzyloxy]aspartic acid], the IC50 at human EAAT2 (stably expressed on MDCK cells) was 22 ± 2.7 nM; at human EAAT3 (stably expressed on MDCK cells), 473 ± 13 nM.

Consider `NCCC(=O)Nc1cccc(CO[C@H](C(=O)O)[C@H](N)C(=O)O)c1` [AA-TBOA, (2S,3S)-3-[3-(3-aminopropionylamino)benzyloxy]aspartic acid], for which the IC50 against human EAAT2 (stably expressed on MDCK cells) and against human EAAT3 (stably expressed on MDCK cells) was 13000 ± 1100 nM each time.

Regarding `N[C@H](C(=O)O)[C@H](OCc1cccc(NC(=O)c2ccccc2)c1)C(=O)O` [BzA-TBOA, (2S,3S)-3-[3-(N-benzoylamino)benzyloxy]aspartic acid], the figures for the IC50 on human EAAT2 (stably expressed on MDCK cells) and against human EAAT3 (stably expressed on MDCK cells) were 55 ± 5 nM and 726 ± 98 nM, respectively.

For `CCCCCCOc1ccc(C(=O)Nc2cccc(CO[C@H](C(=O)O)[C@H](N)C(=O)O)c2)cc1` [OHex-BzA-TBOA, (2S,3S)-3-[3-[N-(4-n-hexyloxybenzoyl)amino]benzyloxy]aspartic acid], the IC50 on human EAAT2 (stably expressed on MDCK cells) is 1.2 ± 0.04 nM; at human EAAT3 (stably expressed on MDCK cells) it was 18 ± 1.6 nM.

For the compound `N#Cc1ccc(C(=O)Nc2cccc(CO[C@H](C(=O)O)[C@H](N)C(=O)O)c2)cc1` [CN-BzA-TBOA, (2S,3S)-3-[3-[N-(4-cyanobenzoyl)amino]benzyloxy]aspartic acid], the results for the IC50 against human EAAT2 (stably expressed on MDCK cells) and on human EAAT3 (stably expressed on MDCK cells) were 36 ± 2.9 nM and 1400 ± 99 nM, respectively.

With `COc1ccccc1C(=O)Nc1cccc(CO[C@H](C(=O)O)[C@H](N)C(=O)O)c1` [o-MeO-BzA-TBOA, (2S,3S)-3-[3-[N-(2-methoxybenzoyl)amino]benzyloxy]aspartic acid], the IC50 is 145 ± 2.2 nM against human EAAT2 (stably expressed on MDCK cells) and 1000 ± 42 nM against human EAAT3 (stably expressed on MDCK cells).

For the compound `N[C@H](C(=O)O)[C@H](OCc1cccc(NC(=O)c2ccc(OC(F)(F)F)cc2)c1)C(=O)O` [OCF3-BzA-TBOA, (2S,3S)-3-[3-[N-(4-trifluoromethoxybenzoyl)amino]benzyloxy]aspartic acid], the IC50 on human EAAT2 (stably expressed on MDCK cells) amounted to 7 ± 0.5 nM; against human EAAT3 (stably expressed on MDCK cells) it was 128 ± 12 nM.

Consider `NCCCCCOc1ccc(C(=O)Nc2cccc(CO[C@H](C(=O)O)[C@H](N)C(=O)O)c2)cc1` [A-PenO-BzA-TBOA, (2S,3S)-3-[3-(N-(4-(5-aminopentyloxy)benzoyl)amino)benzyloxy]aspartic acid], for which the IC50 against human EAAT2 (stably expressed on MDCK cells) worked out at 7300 ± 1100 nM; against human EAAT3 (stably expressed on MDCK cells) it was 2200 ± 200 nM.

As for `N[C@H](C(=O)O)[C@H](OCc1cccc(NC(=O)c2ccc([N+](=O)[O-])cc2)c1)C(=O)O` [NO2-BzA-TBOA, (2S,3S)-3-[3-[N-(4-nitrobenzoyl)amino]benzyloxy]aspartic acid], the IC50 against human EAAT2 (stably expressed on MDCK cells) stood at 14 ± 1.4 nM; against human EAAT3 (stably expressed on MDCK cells), 278 ± 32 nM.

In the case of `CC(C)(C)c1ccc(C(=O)Nc2cccc(CO[C@H](C(=O)O)[C@H](N)C(=O)O)c2)cc1` [TBu-BzA-TBOA, (2S,3S)-3-[3-[N-(4-tert-butylbenzoyl)amino]benzyloxy]aspartic acid], the IC50 against human EAAT2 (stably expressed on MDCK cells) is 25 ± 0.5 nM; on human EAAT3 (stably expressed on MDCK cells), 182 ± 11 nM.

Take `COc1ccc(C(=O)Nc2cccc(CO[C@H](C(=O)O)[C@H](N)C(=O)O)c2)cc1` [p-MeO-BzA-TBOA, (2S,3S)-3-[3-[N-(4-methoxybenzoyl)amino]benzyloxy]aspartic acid]: the IC50 was found to be 12 ± 0.5 nM against human EAAT2 (stably expressed on MDCK cells) and 266 ± 20 nM on human EAAT3 (stably expressed on MDCK cells).

`CCC(=O)Nc1ccc(CO[C@H](C(=O)O)[C@H](N)C(=O)O)cc1` [p-Pr-A-TBOA, (2S,3S)-3-[4-(N-propionylamino)benzyloxy]aspartic acid]: the results for the IC50 on human EAAT2 (setting [1]) and on human EAAT3 (setting [1]) were 111000 ± 25000 nM and 295000 ± 118000 nM, respectively.

Consider `N[C@H](C(=O)O)[C@H](OCc1cccc(NC(=O)C2CCCCC2)c1)C(=O)O` [CHexcA-TBOA, (2S,3S)-3-[3-(N-cyclohexylcarbonylamino)benzyloxy]aspartic acid], for which the IC50 against human EAAT2 (stably expressed on MDCK cells) stood at 244 ± 12 nM; on human EAAT3 (stably expressed on MDCK cells), 288 ± 8 nM.

As to `N[C@H](C(=O)O)[C@H](OCc1ccccc1)C(=O)O` [TBOA, L-threo-β-benzyloxyaspartate, reference compound], the figures for the IC50 at human EAAT2 (stably expressed on MDCK cells) and at human EAAT3 (stably expressed on MDCK cells) were 1400 ± 120 nM and 1300 ± 110 nM, respectively.

Values taken from patent publication US7666906B2, “β-Benzyloxyaspartate derivatives with amino group on benzene ring” (Suntory Holdings Limited, priority 2001, dated 2010).
